Assay results from US10131652B2, “Pyrimidinyloxy benzene derivatives as herbicides” (E. I. DU PONT DE NEMOURS AND COMPANY, priority 2014, dated 2018).

What was measured:
Type in all cases: in vivo
corn (Zea mays) = experiment: Test B pre-/postemergence plant response
In short: (§1)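 Visual injury rating, 0 (no effect) to 100 (complete control), vs untreated controls after ~10 d greenhouse. Pre: directed soil spray after planting in loam/sand. Post: plants 2–10 cm, 1–2 leaf stage. Compound in non-phytotoxic solvent plus surfactant.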

[1] = test system: pigweed (Amaranthus retroflexus); experiment: Test B pre-/postemergence plant response
In short: as §1

[2] = test system: wheat (Triticum aestivum); experiment: Test B pre-/postemergence plant response
In short: as §1

[3] = test system: barnyardgrass (Echinochloa crus-galli); experiment: Test B pre-/postemergence plant response
In short: as §1

[4] = test system: giant foxtail (Setaria faberii); experiment: Test B pre-/postemergence plant response
In short: as §1

[5] = test system: blackgrass (Alopecurus myosuroides); experiment: Test D pre-/postemergence plant response
In short: (§2)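 Preemergence: seeds in loam/sand blend treated with test chemicals in non-phytotoxic solvent with surfactant; postemergence: plants at 2–18 cm (1- to 4-leaf stage) in peat-based medium sprayed likewise. Greenhouse 13 to 15 days, then visual rating vs controls, 0 (no effect) to 100 (complete control).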

[6] = test system: waterhemp (common waterhemp, Amaranthus rudis); experiment: Test D pre-/postemergence plant response
In short: as §2

[7] = test system: pigweed (Amaranthus retroflexus); experiment: Test D pre-/postemergence plant response
In short: as §2

soybean (Glycine max) = experiment: Test D pre-/postemergence plant response
In short: as §2

[8] = test system: ragweed (common ragweed, Ambrosia elatior); experiment: Test D pre-/postemergence plant response
In short: as §2

[9] = test system: morningglory (Ipomoea coccinea); experiment: Test D pre-/postemergence plant response
In short: as §2

[10] = test system: johnsongrass (Sorghum halepense); experiment: Test D pre-/postemergence plant response
In short: as §2

[11] = test system: barnyardgrass (Echinochloa crus-galli); experiment: Test D pre-/postemergence plant response
In short: as §2

[12] = test system: large (Lg) crabgrass (Digitaria sanguinalis); experiment: Test D pre-/postemergence plant response
In short: as §2

[13] = test system: yellow nutsedge (Cyperus esculentus); experiment: Test D pre-/postemergence plant response
In short: as §2

[14] = test system: giant foxtail (Setaria faberii); experiment: Test D pre-/postemergence plant response
In short: as §2

[15] = 125 g ai/ha, postemergence, 0 to 100 scale, 0 no effect, 100 complete control
[16] = Postemergence, 500 g ai/ha, 0 to 100 scale (0 no effect, 100 complete control)
[17] = Preemergence, 125 g ai/ha, 0 to 100 scale (0 no effect, 100 complete control)
[18] = Preemergence, 500 g ai/ha, 0 to 100 scale where 0 is no effect and 100 is complete control
[19] = Postemergence, 31 g ai/ha, scale 0 to 100 (0 no effect, 100 complete control)
[20] = Postemergence, 62 g ai/ha, scale 0 to 100, 0 no effect, 100 complete control
[21] = Postemergence, 125 g ai/ha, scale 0 to 100, 0 no effect, 100 complete control
[22] = Preemergence, 16 g ai/ha, scale 0 to 100 (0 no effect, 100 complete control)
[23] = Preemergence, 31 g ai/ha, scale 0 to 100 (0 no effect, 100 complete control)
[24] = Preemergence, 62 g ai/ha, scale 0 to 100 (0 no effect, 100 complete control)

N#Cc1cccc(Oc2ncc(Cl)cn2)c1-c1cc(C(F)F)on1 [Compound 180]
15: Plant response rating, Ragweed [8, 24] | Plant response rating, Nutsedge, Yellow [13, 21]
5: Plant response rating, Blackgrass [5, 20] | Plant response rating, Blackgrass [5, 21] | Plant response rating, Soybean (soybean (Glycine max); [22]) | Plant response rating, Ragweed [8, 23] | Plant response rating, Morningglory [9, 24] | Plant response rating, Johnsongrass [10, 20] | Plant response rating, Johnsongrass [10, 21] | Plant response rating, Barnyardgrass [11, 20] | Plant response rating, Barnyardgrass [11, 21] | Plant response rating (scale 0 to 100), Crabgrass, Large ([12]; Postemergence, 16 g ai/ha) | Crabgrass, Large plant response rating [12, 19] | Plant response rating, Crabgrass, Large [12, 20] | Plant response rating, Crabgrass, Large [12, 21] | Plant response rating, Foxtail, Giant [14, 22]
98: Plant response rating, Waterhemp [6, 21] | Plant response rating, Pigweed [7, 21] | Plant response rating, Pigweed [7, 23]
35: Ragweed plant response rating [8, 20] | Plant response rating, Barnyardgrass [11, 24]
85: Plant response rating, Soybean (soybean (Glycine max); [21]) | Plant response rating, Foxtail, Giant [14, 24]
25: Plant response rating, Soybean (soybean (Glycine max); [23])
90: Plant response rating, Wheat [2, 16] | Plant response rating, Barnyardgrass [3, 16] | Foxtail, Giant plant response rating [4, 17] | Waterhemp plant response rating [6, 20] | Morningglory plant response rating [9, 20] | Plant response rating, Morningglory [9, 21] | Plant response rating (scale 0 to 100), Johnsongrass ([10]; Preemergence, 125 g ai/ha)
30: Plant response rating (scale 0 to 100), Ragweed ([8]; Postemergence, 16 g ai/ha) | Plant response rating, Crabgrass, Large [12, 22] | Plant response rating (scale 0 to 100), Nutsedge, Yellow ([13]; Preemergence, 125 g ai/ha) | Plant response rating, Foxtail, Giant [14, 20]
40: Plant response rating (scale 0 to 100), Waterhemp ([6]; Postemergence, 16 g ai/ha) | Plant response rating, Waterhemp [6, 22] | Ragweed plant response rating [8, 19] | Plant response rating (scale 0 to 100), Morningglory ([9]; Postemergence, 16 g ai/ha)
100: Plant response rating, Pigweed [1, 15] | Plant response rating, Pigweed [1, 16] | Pigweed plant response rating [1, 17] | Plant response rating, Pigweed [1, 18] | Plant response rating, Foxtail, Giant [4, 16] | Plant response rating, Foxtail, Giant [4, 18] | Plant response rating (scale 0 to 100), Waterhemp ([6]; Preemergence, 125 g ai/ha) | Plant response rating (scale 0 to 100), Pigweed ([7]; Preemergence, 125 g ai/ha) | Plant response rating, Pigweed [7, 24] | Plant response rating (scale 0 to 100), Morningglory ([9]; Preemergence, 125 g ai/ha) | Plant response rating (scale 0 to 100), Crabgrass, Large ([12]; Preemergence, 125 g ai/ha) | Plant response rating, Crabgrass, Large [12, 24] | Plant response rating (scale 0 to 100), Foxtail, Giant ([14]; Preemergence, 125 g ai/ha)
60: Plant response rating, Wheat [2, 15] | Plant response rating, Blackgrass [5, 24] | Soybean plant response rating (soybean (Glycine max); [19]) | Plant response rating, Soybean (soybean (Glycine max); [24]) | Plant response rating, Johnsongrass [10, 24] | Plant response rating (scale 0 to 100), Foxtail, Giant ([14]; Postemergence, 16 g ai/ha) | Plant response rating, Foxtail, Giant [14, 23]
45: Plant response rating (scale 0 to 100), Soybean (soybean (Glycine max); Postemergence, 16 g ai/ha) | Plant response rating, Foxtail, Giant [14, 21]
50: Plant response rating, Barnyardgrass [3, 15] | Foxtail, Giant plant response rating [14, 19]
70: Plant response rating, Corn (corn (Zea mays); [16]) | Plant response rating (scale 0 to 100), Blackgrass ([5]; Preemergence, 125 g ai/ha) | Plant response rating (scale 0 to 100), Pigweed ([7]; Postemergence, 16 g ai/ha) | Soybean plant response rating (soybean (Glycine max); [20])
65: Plant response rating, Ragweed [8, 21]
10: Plant response rating, Johnsongrass [10, 23] | Nutsedge, Yellow plant response rating [13, 20]
55: Plant response rating (scale 0 to 100), Ragweed ([8]; Preemergence, 125 g ai/ha) | Morningglory plant response rating [9, 19]
95: Plant response rating, Waterhemp [6, 23] | Plant response rating, Waterhemp [6, 24]
75: Waterhemp plant response rating [6, 19] | Pigweed plant response rating [7, 19] | Pigweed plant response rating [7, 20] | Plant response rating, Crabgrass, Large [12, 23]
0: Plant response rating (scale 0 to 100), Blackgrass ([5]; Postemergence, 16 g ai/ha) | Blackgrass plant response rating [5, 19] | Plant response rating, Blackgrass [5, 22] | Plant response rating, Blackgrass [5, 23] | Plant response rating, Ragweed [8, 22] | Plant response rating, Morningglory [9, 22] | Plant response rating, Morningglory [9, 23] | Plant response rating (scale 0 to 100), Johnsongrass ([10]; Postemergence, 16 g ai/ha) | Johnsongrass plant response rating [10, 19] | Plant response rating, Johnsongrass [10, 22] | Plant response rating (scale 0 to 100), Barnyardgrass ([11]; Postemergence, 16 g ai/ha) | Barnyardgrass plant response rating [11, 19] | Plant response rating, Barnyardgrass [11, 22] | Plant response rating, Barnyardgrass [11, 23] | Plant response rating (scale 0 to 100), Nutsedge, Yellow ([13]; Postemergence, 16 g ai/ha) | Nutsedge, Yellow plant response rating [13, 19] | Plant response rating, Nutsedge, Yellow [13, 22] | Plant response rating, Nutsedge, Yellow [13, 23] | Plant response rating, Nutsedge, Yellow [13, 24]
80: Plant response rating, Barnyardgrass [3, 18] | Plant response rating, Foxtail, Giant [4, 15] | Plant response rating, Pigweed [7, 22] | Plant response rating (scale 0 to 100), Soybean (soybean (Glycine max); Preemergence, 125 g ai/ha) | Plant response rating (scale 0 to 100), Barnyardgrass ([11]; Preemergence, 125 g ai/ha)
20: Plant response rating, Corn (corn (Zea mays); [15]) | Barnyardgrass plant response rating [3, 17]
